The results in this text go back to patent US9427440B2, “Macrocyclic indole derivatives useful as hepatitis C virus inhibitors” (Janssen Sciences Ireland UC, priority 2008, dated 2016).

Among the targets are NS5B 1b isolate 3 (Hepatitis C virus genotype 1b, UniProt Q9WMX2); NS5B 1a isolate 1 (Hepatitis C virus genotype 1a, UniProt P27958); NS5B 2b isolate 2 (Hepatitis C virus genotype 2b, UniProt P26661); NS5B 1a isolate 3 (Hepatitis C virus genotype 1a, UniProt P27958); NS5B 1a isolate 2 (Hepatitis C virus genotype 1a, UniProt P27958); NS5B 1b isolate 2 (Hepatitis C virus genotype 1b, UniProt Q9WMX2); NS5B 1a isolate 4 (Hepatitis C virus genotype 1a, UniProt P27958).

Series [1] addresses T1, NS5B 4a isolate 1 (Hepatitis C virus genotype 4a, UniProt O39929).
In series [2] the target is T2, NS5B 4a isolate 3 (Hepatitis C virus genotype 4a, UniProt O39929). Nature of the series: biochemical.
Series [3] concerns the target T3, NS5B 6a isolate 5 (Hepatitis C virus genotype 6a, UniProt O39927).
The target in series [4] is T4, NS5B 4a isolate 2 (Hepatitis C virus genotype 4a, UniProt O39929). Nature of the series: biochemical.
For series [5], the target named is T4, NS5B 4a isolate 2.
The target of series [6] is T1, NS5B 4a isolate 1. Nature of the series: biochemical.
In another series the target is NS5B 5a isolate 4 (Hepatitis C virus genotype 5a, UniProt O39928). The experiment in a line: Enzyme binding affinity, SPR (Biacore). Also noted: species or system HCV.
Series [7] addresses T3, NS5B 6a isolate 5. Nature of the series: biochemical.
Series [8] addresses T2, NS5B 4a isolate 3.
Series [9] deals with HCV type 1b replicon in Huh-7 luc/neo (Huh-Luc) cells. The experiment in a line: HCV replicon assay (Huh-Luc, luciferase). The conditions noted are these: Hepatitis C virus, Huh-7, 72 h.
In a further series the target is HCV NS5B 1bJ4 (Hepatitis C virus genotype 1b (strain HC-J4) (HCV), UniProt O92972). The experiment in a line: Inhibition assay with NS5b 1bJ4 (RdRp, SPA). The series is classed as biochemical. The note with it: 50 nM NS5B 1bJ4 enzyme, radiolabeled GTP incorporation.
The next series addresses HCV NS5B con1b (Hepatitis C virus genotype 1b (isolate Con1) (HCV), UniProt Q9WMX2). Nature of the series: RNA-dependent RNA polymerase assay NS5B con1b. The note with it: read-out: IC50 Con1b; 20 nM Con1b NS5B enzyme, primer-dependent transcription assay.

Chain of HCV NS5B 1bJ4 (O92972 whole entry, looked up): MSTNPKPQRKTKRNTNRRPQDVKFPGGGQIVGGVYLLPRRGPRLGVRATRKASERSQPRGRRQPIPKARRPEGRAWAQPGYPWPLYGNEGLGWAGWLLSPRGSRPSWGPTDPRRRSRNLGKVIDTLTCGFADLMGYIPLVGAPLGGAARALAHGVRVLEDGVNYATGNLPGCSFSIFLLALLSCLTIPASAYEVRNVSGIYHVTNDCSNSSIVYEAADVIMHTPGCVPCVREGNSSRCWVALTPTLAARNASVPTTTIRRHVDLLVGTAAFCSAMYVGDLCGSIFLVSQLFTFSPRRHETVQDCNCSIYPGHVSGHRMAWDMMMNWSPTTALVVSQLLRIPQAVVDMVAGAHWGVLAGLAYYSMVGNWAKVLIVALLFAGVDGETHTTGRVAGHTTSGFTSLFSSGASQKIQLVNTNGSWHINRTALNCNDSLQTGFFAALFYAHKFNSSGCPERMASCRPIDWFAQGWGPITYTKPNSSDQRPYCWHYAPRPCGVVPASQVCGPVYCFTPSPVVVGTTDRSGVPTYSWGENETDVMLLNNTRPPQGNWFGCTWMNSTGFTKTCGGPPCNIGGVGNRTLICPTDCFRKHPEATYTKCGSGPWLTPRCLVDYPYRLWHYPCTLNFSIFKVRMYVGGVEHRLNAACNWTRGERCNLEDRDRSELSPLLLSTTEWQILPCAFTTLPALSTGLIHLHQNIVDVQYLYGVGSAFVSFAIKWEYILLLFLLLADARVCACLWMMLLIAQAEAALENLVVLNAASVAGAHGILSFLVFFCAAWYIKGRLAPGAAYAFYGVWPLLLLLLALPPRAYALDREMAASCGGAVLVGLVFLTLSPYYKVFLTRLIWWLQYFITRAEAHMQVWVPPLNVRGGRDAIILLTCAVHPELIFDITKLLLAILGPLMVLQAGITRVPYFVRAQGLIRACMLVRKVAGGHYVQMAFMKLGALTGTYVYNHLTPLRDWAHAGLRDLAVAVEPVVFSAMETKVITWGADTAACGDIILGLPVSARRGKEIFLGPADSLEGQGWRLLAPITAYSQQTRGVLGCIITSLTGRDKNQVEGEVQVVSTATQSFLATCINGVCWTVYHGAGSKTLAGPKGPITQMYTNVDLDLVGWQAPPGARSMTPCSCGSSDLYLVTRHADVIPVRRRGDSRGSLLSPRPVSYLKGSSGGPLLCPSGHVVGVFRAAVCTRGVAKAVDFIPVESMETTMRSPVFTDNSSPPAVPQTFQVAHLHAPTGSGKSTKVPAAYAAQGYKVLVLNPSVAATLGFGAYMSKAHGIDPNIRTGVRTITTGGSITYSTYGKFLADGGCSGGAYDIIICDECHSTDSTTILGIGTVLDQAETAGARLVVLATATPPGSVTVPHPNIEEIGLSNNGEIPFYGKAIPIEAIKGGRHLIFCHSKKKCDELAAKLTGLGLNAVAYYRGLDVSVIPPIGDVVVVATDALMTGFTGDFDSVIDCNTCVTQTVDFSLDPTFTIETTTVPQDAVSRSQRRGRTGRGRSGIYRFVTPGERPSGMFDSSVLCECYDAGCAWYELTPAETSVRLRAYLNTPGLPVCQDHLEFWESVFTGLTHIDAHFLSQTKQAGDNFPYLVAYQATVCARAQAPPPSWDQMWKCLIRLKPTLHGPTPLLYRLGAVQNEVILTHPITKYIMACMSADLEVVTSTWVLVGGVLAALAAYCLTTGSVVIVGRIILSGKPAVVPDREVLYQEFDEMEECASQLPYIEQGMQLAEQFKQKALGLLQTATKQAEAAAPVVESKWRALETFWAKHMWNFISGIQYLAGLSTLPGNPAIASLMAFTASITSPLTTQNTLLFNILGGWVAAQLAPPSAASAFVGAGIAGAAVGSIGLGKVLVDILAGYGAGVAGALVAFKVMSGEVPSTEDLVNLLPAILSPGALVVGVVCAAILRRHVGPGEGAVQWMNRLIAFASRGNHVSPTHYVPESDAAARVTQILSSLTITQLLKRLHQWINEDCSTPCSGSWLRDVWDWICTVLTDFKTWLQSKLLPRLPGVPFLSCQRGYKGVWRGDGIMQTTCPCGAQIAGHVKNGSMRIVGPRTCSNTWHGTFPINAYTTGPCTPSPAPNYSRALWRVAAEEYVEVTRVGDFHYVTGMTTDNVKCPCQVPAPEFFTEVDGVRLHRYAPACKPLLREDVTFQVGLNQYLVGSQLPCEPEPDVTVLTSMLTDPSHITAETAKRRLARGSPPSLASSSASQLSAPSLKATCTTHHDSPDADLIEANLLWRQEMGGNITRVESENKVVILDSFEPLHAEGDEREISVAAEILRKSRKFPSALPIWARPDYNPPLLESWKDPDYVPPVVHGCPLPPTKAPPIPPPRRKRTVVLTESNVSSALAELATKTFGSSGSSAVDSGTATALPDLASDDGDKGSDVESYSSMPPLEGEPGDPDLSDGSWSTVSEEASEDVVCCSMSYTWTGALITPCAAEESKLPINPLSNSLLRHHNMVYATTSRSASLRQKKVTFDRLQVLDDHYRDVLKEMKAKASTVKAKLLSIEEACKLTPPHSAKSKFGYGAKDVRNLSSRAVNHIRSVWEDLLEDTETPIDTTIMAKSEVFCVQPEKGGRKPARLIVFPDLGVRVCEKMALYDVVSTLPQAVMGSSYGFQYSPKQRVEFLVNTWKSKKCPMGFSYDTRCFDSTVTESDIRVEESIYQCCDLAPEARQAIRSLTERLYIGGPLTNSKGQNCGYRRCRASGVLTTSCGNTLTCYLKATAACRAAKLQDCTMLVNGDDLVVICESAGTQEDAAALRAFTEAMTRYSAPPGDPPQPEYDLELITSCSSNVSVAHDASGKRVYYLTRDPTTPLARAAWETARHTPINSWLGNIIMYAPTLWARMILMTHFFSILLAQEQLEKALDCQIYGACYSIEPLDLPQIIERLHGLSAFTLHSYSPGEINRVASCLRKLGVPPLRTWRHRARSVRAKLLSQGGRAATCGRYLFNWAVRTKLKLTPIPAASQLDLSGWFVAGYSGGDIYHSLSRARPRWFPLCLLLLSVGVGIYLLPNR
Experimental for HCV NS5B con1b: Fifty-percent inhibitory concentrations (Table 1: IC50 con1b) were determined according to the method as described previously (Pauwels et al, 2007, J Virol 81:6909-19) using a primer-dependent transcription assay. […] 600 nM GTP and 0.13 μCi of [^3H]GTP was then added to initiate the 40-μl reaction mixture, which was then incubated at room temperature for 2 h before the reaction was stopped by addition of 40-μl streptavidin-coated SPA beads.

As to `COc1ccc2c(c1)C=C1Cn3c-2c(C2CCCCC2)c2ccc(cc23)C(=O)NS(=O)(=O)N(C)CCOCCN(C)C1=O` [Compound 1], the t1/2 amounted to 26.7 min at NS5B 4a isolate 1 [1]; 96.4 min at NS5B 1b isolate 3; 7.3 min on NS5B 6a isolate 5 [3]; 30.1 min at NS5B 4a isolate 2 [5]; 24.2 min at NS5B 1a isolate 1; 1.0 min at NS5B 2b isolate 2. The t1/2 is recorded as 19.2 min at NS5B 1a isolate 3; 31.3 min at NS5B 1a isolate 2; 19.1 min at NS5B 4a isolate 3 [8]; 172.1 min on NS5B 1b isolate 2; 14.9 min at NS5B 1a isolate 4. Besides, the Kd on NS5B 4a isolate 3 [2] came to 3.4 nM; at NS5B 4a isolate 2 [4] it was 1.4 nM; on NS5B 4a isolate 1 [6], 2.1 nM; on NS5B 5a isolate 4, 22 nM; on NS5B 6a isolate 5 [7] it was 32 nM. On to `COc1ccc2c(c1)C=C1Cn3c-2c(C2CCCCC2)c2ccc(cc23)C(=O)NS(=O)(=O)N2CCN(CCNC1=O)CC2` [Compound 5], for which, in [9], the EC50 came to 920 nM. The compound also had an IC50 against HCV NS5B 1bJ4 of 290 nM. `COc1ccc2c(c1)C=C1Cn3c-2c(C2CCCCC2)c2ccc(cc23)C(=O)NS(=O)(=O)N(C)CCN(C)CCNC1=O` [Compound 6]: a half-maximal effect in series [9] (EC50) was put at 550 nM.

The compound `COc1ccc2c(c1)[C@@H]1C[C@]13Cn1c-2c(C2CCCCC2)c2ccc(cc21)C(=O)NS(=O)(=O)N(C)CCOCCN(C)C3=O` [Compound 8, (1aR,12bS)-8-cyclohexyl-11-methoxy-16,22-dimethyl-1,12b-dihydro-5,1a-(methanoiminothioiminoethanooxyethanoiminomethano)cyclopropa[d]-indolo[2,1-a][2]benzazepine-13,23(2H)-dione 15,15-dioxide] came in with an EC50 in [9] of 40 nM. The same measure, in the same setting: with `COc1ccc2c(c1)[C@H]1C[C@@]13Cn1c-2c(C2CCCCC2)c2ccc(cc21)C(=O)NS(=O)(=O)N(C)CCOCCN(C)C3=O` [Compound 9, (1 aS,12bR)-8-cyclohexyl-11-methoxy-16,22-dimethyl-1,12b-dihydro-5,1a-(methanoiminothioiminoethanooxyethanoiminomethano)cyclopropa[d]indolo-[2,1-a][2]benzazepine-13,23(2H)-dione 15,15-dioxide] the figure was 800 nM.

The compound `COc1ccc2c(c1)C1CC13Cn1c-2c(C2CCCCC2)c2ccc(cc21)C(=O)NS(=O)(=O)N(C)CCCCNC3=O` (stereo not shown) [Compound 10, 8-cyclohexyl-11-methoxy-16-methyl-1,12b-dihydro-5,1a-(methanoiminothioiminobutanoimino)cyclopropa[d]indolo[2,1-a][2]benzazepine-13,22(2H)-dione 15,15-dioxide] yielded an EC50 in [9] of 60 nM. For the same compound, at HCV NS5B 1bJ4, the IC50 is 280 nM. The like results for `COc1ccc2c(c1)C1CC13Cn1c-2c(C2CCCCC2)c2ccc(cc21)C(=O)NS(=O)(=O)N(C)CCN1CCN(CC1)C3=O` (stereo not shown) [Compound 11, 31-cyclohexyl-8-methoxy-22-methyl-21-thia-1,13,20,22,25-pentaazaheptacyclo-[23.2.2.1^3,13.1^12,15.1^14,18.0^3,5.0^6,11]dotriaconta-6,8,10,12(31),14(30),15,17-heptaene-2,19-dione 21,21-dioxide] were, in that order, 55 nM and 220 nM. On the same counts, the results for `COc1ccc2c(c1)C1CC13Cn1c-2c(C2CCCCC2)c2ccc(cc21)C(=O)NS(=O)(=O)N(C)C/C=C/CCNC3=O` (stereo not shown) [Compound 12, 8-cyclohexyl-11-methoxy-16-methyl-1,12b-dihydro-5,1a-(methaniminothio-iminopent[2]enoiminomethano)cyclopropa[d]indolo[2,1-a][2]benzazepine-13,23(2H)-dione 15,15-dioxide] are 290 nM and 930 nM. `COc1ccc2c(c1)C=C1Cn3c-2c(C2CCCCC2)c2ccc(cc23)C(=O)NS(=O)(=O)N(C)CC=CCNC1=O` [Compound 13] came in with an EC50 in series [9] of 390 nM. Besides, the IC50 at HCV NS5B 1bJ4 was found to be 190 nM. As to `COc1ccc2c(c1)C=C1Cn3c-2c(C2CCCCC2)c2ccc(cc23)C(=O)NS(=O)(=O)N(C)CCN2CCN(CC2)C1=O` [Compound 15], the EC50 in [9] came out at 180 nM.

`COc1ccc2c(c1)C(C)=C1Cn3c-2c(C2CCCCC2)c2ccc(cc23)C(=O)NS(=O)(=O)N(C)CCOCCN(C)C1=O` [Compound 16] showed an EC50 in [9] of 78 nM.

With `COc1ccc2c(c1)C(C)=C1Cn3c-2c(C2CCCCC2)c2ccc(cc23)C(=O)NS(=O)(=O)N(C)CCCCN(C)C1=O` [Compound 17], the EC50 in series [9] stood at 170 nM. The same measure, in the same setting: with `COc1ccc2c(c1)C=C1Cn3c-2c(C2CCCCC2)c2ccc(cc23)C(=O)NS(=O)(=O)N(C)CCCCN(C)C1=O` [Compound 18] the figure was 79 nM. In [9], `CN1CCOCCN(C)S(=O)(=O)NC(=O)c2ccc3c(C4CCCCC4)c4n(c3c2)CC(=Cc2cc(F)ccc2-4)C1=O` [Compound 19] had an EC50 of 72 nM. The IC50 at HCV NS5B con1b worked out at 31 nM. For the compound `CC1=C2Cn3c(c(C4CCCCC4)c4ccc(cc43)C(=O)NS(=O)(=O)N(C)CCOCCN(C)C2=O)-c2ccc(F)cc21` [Compound 20], the EC50 in series [9] is 81 nM. Also, the IC50 on HCV NS5B con1b stood at 38 nM. In series [9], `CN1CCOCCN(C)S(=O)(=O)NC(=O)c2ccc3c(C4CCCCC4)c4n(c3c2)CC(=Cc2cc(Cl)ccc2-4)C1=O` [Compound 21] showed an EC50 of 280 nM. The same measure, in the same setting: with `COc1ccc2c(c1)C=C1Cn3c-2c(C2CCCCC2)c2ccc(cc23)C(=O)NS(=O)(=O)N(C)CCCCCCN(C)C1=O` [Compound 22] the figure was 160 nM; with `COc1ccc2c(c1)C=C1Cn3c-2c(C2CCCCC2)c2ccc(cc23)C(=O)NS(=O)(=O)NCCN(C)CCNC1=O` [Compound 23], 470 nM; with `CN1CCCCN(C)S(=O)(=O)NC(=O)c2ccc3c(C4CCCCC4)c4n(c3c2)CC(=Cc2ccc(Cl)cc2-4)C1=O` [Compound 24], 14500 nM.

Compound `COc1ccc2c(c1)C=C1Cn3c-2c(C2CCCCC2)c2ccc(cc23)C(=O)NS(=O)(=O)NCCCCN(C)C1=O` [Compound 25] yielded an EC50 in [9] of 550 nM. Still for that read-out and setting: with `COc1ccc2c(c1)C=C1Cn3c-2c(C2CCCCC2)c2ccc(cc23)C(=O)NS(=O)(=O)N(C)CCCCCNC1=O` [Compound 26] the figure was 130 nM; with `CN1CCCCCNC(=O)C2=Cc3ccc(Cl)cc3-c3c(C4CCCCC4)c4ccc(cc4n3C2)C(=O)NS1(=O)=O` [Compound 27], 10200 nM; with `COc1ccc2c(c1)C=C1Cn3c-2c(C2CCCCC2)c2ccc(cc23)C(=O)NS(=O)(=O)N(C(C)C)CCCCN(C)C1=O` [Compound 28], 330 nM. Same read-out and setting: the value for `COc1ccc2c(c1)C=C1Cn3c-2c(C2CCCCC2)c2ccc(cc23)C(=O)NS(=O)(=O)N(C)CCCCNC1=O` [Compound 38] was 912 nM.
